This is an account of results in patent US20080004561A1, “Method for Treating Oncological, Virulent and Somatic Diseases, Method for Controlling Treatment Efficiency, Pharmaceutical Agents and Composition for Carrying Out Said Treatment” (priority 2005, published 2008).

The subject of one data set is P-glycoprotein. As to the kind of experiment: P-glycoprotein expression in Erlich carcinoma, immunohistochemical staining (Example 13). In kind it is in vivo, mice. Particulars: 5 day therapy from 3rd day: Doxorubicin 2 mg/kg intravenously daily, DNase I 0.5 mg/kg four times a day; tissue on 8th day.
In a further data set the test system is LLC tumor. Description: LLC tumor growth under Doxorubicin, plasma DNA of chemotherapy-treated mice and DNase I (Example 14). In kind it is in vivo, C57B1 mice. The source says: Blood plasma DNA of tumor-bearing mice was received according to technique described above. Highly metastatic and low metastatic stains of mice' Luice lung carcinoma and Erlich carcinoma were used. Cells were cultivated in RPMI-1640 media with adding of 10% embryonic calf serum, 1% penicillin—streptomycin in 5% carbon dioxide atmosphere. For tumor induction in mice, cells were cultivated until the monolayer, than were detached with trypsin-EDTA solution. Cells were washed trice by centrifuging in phosphate buffer and were resuspensed until their concentration have become 0.5×10^7/ml. Viability was defined by inclusion of methylene blue in hemocytometer. Suspensions that contained 95% of viable cells were used for administration to animals.
Mice of C57B1 line and white not thoroughbred mice from “Rappolovo” animal house were used. Weight of animals was 24-26 grams. Animals were contained in cages, for 6-7 mice per one cage on a standard diet without water restriction. LLC cells in dose of 5×10^5 in 100 mkl of phosphate buffer were injected in soft tissues of thigh. Erlich tumor was subcutaneously replanted on the right side by injection of 0.2 ml 10% cells' suspension in isotonic sodium chloride solution.

The subject of a further data set is Erlich carcinoma. Description: Combined use of DNase and Doxorubicin, Erlich tumor growth (Example 3). In kind it is in vivo, mice. Particulars: Doxorubicin 2 mg/kg intravenously once a day and/or DNase 0.5 mg/kg intraperitoneally four times a day, day 3 to 7; 7th day after transplantation. The method, then:
Bovine pancreatic DNase I (Fermentas) and human recombinant DNase […]) were used. DNase I solution for injections were prepared by dissolving of DNase matrix solution in sterile phosphate buffer directly before administration. […] Blood plasma DNA of tumor-bearing mice was received according to technique described above. Highly metastatic and low metastatic stains of mice' Luice lung carcinoma and Erlich carcinoma were used. […] For tumor induction in mice, cells were cultivated until the monolayer, than were detached with trypsin-EDTA solution. Cells were washed trice by centrifuging in phosphate buffer and were resuspensed until their concentration have become 0.5×10^7/ml. Viability was defined by inclusion of methylene blue in hemocytometer. […] Mice of C57B1 line and white not thoroughbred mice from “Rappolovo” animal house were used. Weight of animals was 24-26 grams. Animals were contained in cages, for 6-7 mice per one cage on a standard diet without water restriction. LLC cells in dose of 5×10^5 in 100 mkl of phosphate buffer were injected in soft tissues of thigh. […] Group 1-10 mice transplanted with Erlich carcinoma (control). Group 2-10 mice replanted with Erlich carcinoma. […] Group 3-10 mice replanted with Erlich carcinoma. […] Group 4-10 mice replanted with Erlich carcinoma. […] Results of experiments were estimated according to tumor's growth inhibition (TGI) that were expressed in percents to control data received at last day of DNase injection with standard formula using.

Data set [1] in a line: Toxic effect of human DNase I injection on animals. It counts as in vivo. Particulars: single and multiple injection of up to 2.5 mg/kg.
Data set [2] can be described thus: Influence of DNase I therapy on old rats' life time (Example 19). In kind it is in vivo. Particulars: 24 month old rats, 500 mg/kg intravenously 2 times a week during 2 months. The procedure:
White not thoroughbred 24 month old rats were used in experiment. In the study group (10 animals) rats starting from the age of 24 months were subjected to intravenous administration of polysialated human DNase I at […] (equivalent dose of non-modified enzyme) 2 times a week during 2 months. Control group of animals got the administration of placebo. Average life time of rats from control group was 27.8 months. Average life time of rats from experimental group was 30.1 months.

Method for P-glycoprotein: Mice were subjected to course of 5 day therapy with Doxorubicin (2 mg/kg intravenously daily) or Doxorubicin+DNase I (0.5 mg/kg four times a day during 5 days)
Tissue preparations were executed on the 8th day of tumor's transplantation.

On to `COc1cccc2c1C(=O)c1c(O)c3c(c(O)c1C2=O)C[C@@](O)(C(=O)CO)C[C@@H]3O[C@H]1C[C@H](N)[C@H](O)[C@H](C)O1` [Doxorubicin], for which the “P-glycoprotein expression in tumor tissue” value with P-glycoprotein is reported as “Multifocal expression”. In the data set with LLC tumor (8th day after transplantation, Doxorubicin 2 mg/kg i.v. daily day 3-8, DNA 0.05 mkg i.v. day 1 and 3 of treatment, DNase I 0.5 mg/kg i.p. 4 times a day, first and second days), the “Tumor's size” value is on record as 67 +/− 7. Moreover, in the data set with LLC tumor (Doxorubicin 2 mg/kg daily for 5 days from day 3, Cyclophosphamide 15 mg/kg intraperitoneally once on 3rd day), the “tumor inhibition at day 8” value worked out at 50%. In the data set with Erlich carcinoma, the “T% (tumor's growth inhibition)” value amounted to 42% and the “Tumor's volume” value was 57 +/− 10.

For the molecule `O=P1(N(CCCl)CCCl)NCCCO1` (centres unmarked) [Cyclophosphamide], the “tumor inhibition at day 8” value in the data set with LLC tumor (mouse, in vivo) came out at 30%.

B1: human DNase I: human recombinant DNase I (Dornase; Gentech) (protein, UniProt P24855 23-282, looked up)
Deoxyribonuclease-1: LKIAAFNIQTFGETKMSNATLVSYIVQILSRYDIALVQEVRDSHLTAVGKLLDNLNQDAPDTYHYVVSEPLGRNSYKERYLFVYRPDQVSAVDSYYYDDGCEPCGNDTFNREPAIVRFFSRFTEVREFAIVPLHAAPGDAVAEIDALYDVYLDVQEKWGLEDVMLMGDFNAGCSYVRPSQWSSIRLWTSPTFQWLIPDSADTTATPTHCAYDRIVVAGMLLRGAVVPDSALPFNFQAAYGLSDQLAQAISDHYPVEVMLK
Take B1: the “Toxic effect on animals” value in data set [1] was “no toxic effect”.

B2: polysialated human DNase I: polysialated human DNase I, dose as equivalent of non-modified enzyme (protein, UniProt P24855 23-282, looked up)
Deoxyribonuclease-1: LKIAAFNIQTFGETKMSNATLVSYIVQILSRYDIALVQEVRDSHLTAVGKLLDNLNQDAPDTYHYVVSEPLGRNSYKERYLFVYRPDQVSAVDSYYYDDGCEPCGNDTFNREPAIVRFFSRFTEVREFAIVPLHAAPGDAVAEIDALYDVYLDVQEKWGLEDVMLMGDFNAGCSYVRPSQWSSIRLWTSPTFQWLIPDSADTTATPTHCAYDRIVVAGMLLRGAVVPDSALPFNFQAAYGLSDQLAQAISDHYPVEVMLK
modifications: polysialylated
notes: polysialated human DNase I, dose as equivalent of non-modified enzyme
In turn, B2 registered an Average life time in data set [2] of 30.1 months.
